Results on 51 molecules are retold here after PubChem BioAssay AID602236 (The Scripps Research Institute Molecular Screening Center, 2012).

Molecules are shown by their SMILES. Activity calls are given as the source filed them.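 How the source made its calls: active means IC50 of 10 µM or lower; inactive means IC50 above 10 µM.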

Broadly, the IC50 is the concentration needed to halve the response being measured.

The test deals with HEK-293 Gal4-VP16 UAS luciferase reporter, luminescence. The test can be described thus: VP16 transactivation inhibitor potency, dose response, counter-screen for SRC1 inhibitor project, cell-based, luminescence, high throughput, SRC1 series (AID 602236;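 further: inhibitor potency where hits lower luciferase light from Gal4-VP16 transactivation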). (The purpose of a counterscreen is to sort out artefacts and off-target activity.)
For `COc1ccc2[nH]c(=O)c(CN(CCN3CCCC3)C(=O)Nc3ccccc3Cl)cc2c1`, the IC50 is 23.8 µM (inactive).

For `COc1cc(C(=O)N/N=C(\c2ccccc2)c2ccccn2)cc(OC)c1OC`, the half-maximal inhibitory concentration (IC50) is 8.61 µM.

For the molecule `OCCN1CCN(C(=S)c2ccc(-c3ccccc3)cc2)CC1`, the IC50 was 30.7 µM (inactive).

With `O=C(CCl)N1N=C(c2cccs2)CC1c1ccco1` (stereo unspecified), the IC50 is 20.2 µM (inactive).

For `CCN(Cc1ccncc1)C(=O)CC1C(=O)NCCN1Cc1ccc(F)c(F)c1` (stereo unspecified), the IC50 was 15.8 µM (inactive).

Consider `CCN(CC(=O)Nc1ccc(NC(C)=O)cc1)C(=O)C1(c2ccc(Cl)cc2)CCC1`, for which the IC50 is > 35.9 µM (inactive).

On to `Cc1cc(/C=C2\Cc3ccccc3C2=O)c(C)n1-c1ccccc1`, for which the IC50 is > 35.9 µM (inactive).

Take `CCOC(=O)c1c(NC(=O)C(C)N2CCN(C(=O)c3ccco3)CC2)sc2c1CCCC2` (stereo unspecified): the IC50 is 11.4 µM (inactive).

As to `CN1CCN(c2cccc3c2C(=O)c2ccccc2C3=O)CC1`, the IC50 is 23.8 µM (inactive).

For the molecule `CC(=O)/C(N=Nc1ccc2c(c1)OCCO2)=C(\C)O`, the IC50 is > 35.9 µM (inactive).

Take `Cc1c(CC(=O)NCCCC(=O)O)c(=O)oc2cc3c(cc12)CCC(C)(C)O3`: the IC50 was 18.4 µM (inactive).

With `Cc1ccc(O)c(Nc2ncnc3ccc([N+](=O)[O-])cc23)c1`, the IC50 is 10.8 µM (inactive).

Take `O=C(Nc1cccc(Cl)c1)Nc1nnc(-c2ccncc2)s1`: the concentration for half-maximal inhibition (IC50) is 5.14 µM.

Regarding `CCc1ccc(/C=C2\SC(=S)N(CCCC(=O)NCCCN3CCOCC3)C2=O)cc1`, the IC50 was 12.7 µM (inactive).

As to `COc1ccc(-n2cnc(N)c2C(=O)c2cccc([N+](=O)[O-])c2)cc1`, the IC50 was 15.7 µM (inactive).

Turning to `OCCN(CCO)CC(O)COc1ccc(C23CC4CC(CC(C4)C2)C3)cc1` (stereo unspecified), the IC50 is > 35.9 µM (inactive).

Take `O=C(O)CN1C(=O)/C(=C\c2ccccc2OCc2ccc(Cl)cc2Cl)SC1=S`: the IC50 was > 35.9 µM (inactive).

On to `O=C(Nc1nc(-c2ccccn2)cs1)c1cccc(S(=O)(=O)N2CCOCC2)c1`, for which the IC50 is 8.59 µM.

Take `S=C(c1ccc(-c2ccccc2)cc1)N1CCOCC1`: the IC50 is 24 µM (inactive).

Take `COc1ccc2ncn(-c3ccccc3)c2c1`: the IC50 is 5.95 µM.

With `Cc1ccc(NC(=O)CCC(=O)N/N=C/c2ccc(O)cc2O)cc1`, the IC50 was 23 µM (inactive).

`CCOC(=O)CSc1cc(-c2ccccc2)nc2ncnn12`: the IC50 is > 35.9 µM (inactive).

On to `O=C(CCCOc1ccc(Cl)cc1Cl)N/N=C/c1ccccc1O`, for which the IC50 is 4.77 µM.

For the molecule `O=C(CCl)NC(Cc1ccccc1)c1ccccc1` (stereo unspecified), the IC50 was 20.8 µM (inactive).

`O=C(Nc1cccc(C(F)(F)F)c1)Nc1nnc([C@@H]2C[C@H](O)[C@@H](CO)O2)s1`: the IC50 was 7.89 µM.

Take `COc1cc2c(cc1OC)C(C)N(C(=O)c1cccc([N+](=O)[O-])c1)CC2` (stereo unspecified): the IC50 is 8.73 µM.

Consider `O=C(N/N=C/c1cc([N+](=O)[O-])ccc1O)c1cccc(N2CCCC2=O)c1`, for which the IC50 is 18.3 µM (inactive).

For `COc1cc(/C=C2\CC(C(C)(C)C)C/C(=C\c3cc(OC)c(OC)c(OC)c3)C2=O)cc(OC)c1OC` (stereo unspecified), the IC50 is 5.96 µM.

Take `CN(Cc1cnc2nc(N)nc(N)c2n1)c1ccc(C(=O)NC(CCC(=O)O)C(=O)O)cc1` (stereo unspecified): the IC50 was > 35.9 µM (inactive).

Consider `CCC(=O)Oc1c(C(=O)CC)cc2c(C)cc(=O)oc2c1C`, for which the IC50 was 18.9 µM (inactive).

As to `O=C(c1ccncc1)N(Cc1cc2ccccc2[nH]c1=O)C1CCCCC1`, the IC50 is 7.87 µM.

As to `O=C1CCC/C1=c1\s/c(=C/c2cccnc2)c(=O)n1-c1ccccc1`, the IC50 is 11.2 µM (inactive).

In the case of `COc1ccc(-c2ncncc2-c2ccccc2)c(O)c1`, the IC50 is 19.4 µM (inactive).

As to `CC(C)n1c(SCC(=O)Nc2nc3c(s2)CCCC3)nc2c1c(=O)n(C)c(=O)n2C`, the IC50 is 13.9 µM (inactive).

For `CC(=O)NC(c1cc(Cl)c2cccnc2c1O)C(C)C` (stereo unspecified), the IC50 was 8.06 µM.

On to `c1nc2sc3c(c2c2nnnn12)CCCC3`, for which the IC50 was 13.3 µM (inactive).

Regarding `O=C1CCC2S/C(=C/Nc3ccc(C(F)(F)F)cc3)C(=O)N12` (stereo unspecified), the IC50 is > 35.9 µM (inactive).

Consider `CCOc1ccc(-c2noc(CCC(=O)O)n2)cc1`, for which the IC50 was > 35.9 µM (inactive).

Regarding `CC(=O)NC(c1cc(Cl)c2cccnc2c1O)C1CC1` (stereo unspecified), the IC50 is 9.3 µM.

On to `Cc1c(C(=O)N/N=C/C(C)C)[nH]c2ccc([N+](=O)[O-])cc12`, for which the IC50 was 21.3 µM (inactive).

Consider `COc1ccc(Cc2nnc(SCc3ccc([N+](=O)[O-])cc3)o2)cc1`, for which the IC50 is 15.3 µM (inactive).

In the case of `CCCc1cc(C(=O)N(C)CC(=O)Nc2ccc(OCC)c(OCC)c2)sc1C`, the IC50 was > 35.9 µM (inactive).

`N#Cc1cc2ccncc2c2ccccc12`: the IC50 was 6.89 µM.

In the case of `CCOc1ccc(/C=C2\SC(=S)N(CCCC(=O)NCCCN3CCOCC3)C2=O)cc1`, the IC50 is 21.9 µM (inactive).

As for `CCN(C(=O)c1cc(S(=O)(=O)N2CCCCC2)c[nH]1)c1ccc(OC)cc1`, the IC50 was 12.8 µM (inactive).

With `O=C(N/N=C/c1ccccc1O)/C(=C/c1ccccc1)CCO`, the IC50 is 7.52 µM.

`Cc1ccc(O)c(C(=O)c2cnn(C(=O)COc3ccc(Cl)cc3)c2)c1`: the IC50 was 27.6 µM (inactive).

For the molecule `COc1ccc(C(O)(C(C)C)C(CN2CCOCC2)c2ccc(Cl)cc2)cc1` (stereo unspecified), the IC50 was 20 µM (inactive).

`Cc1sc2ncnc(N3CCC(C(=O)N(C)CC(=O)Nc4cccc(F)c4)CC3)c2c1C`: the IC50 is 15 µM (inactive).

As for `Cc1cc(=O)[nH]c(Nc2cccc(Br)c2)n1`, the IC50 is 9.71 µM.

With `CCCCCOc1ccc(/C=C/c2c([N+](=O)[O-])c(=O)n(C)c(=O)n2C)cc1`, the IC50 is 10.1 µM (inactive).
